# In BigSolDB 2.1:
compound,measurement,setting,value
COc1cc([N+](=O)[O-])ccc1N,solubility (mole fraction),"in isopropanol, 278.15 K",0.00186
same,solubility (mole fraction),"in isopropanol, 283.15 K",0.00221
same,solubility (mole fraction),"in isopropanol, 288.15 K",0.00265
same,solubility (mole fraction),"in isopropanol, 293.15 K",0.00322
same,solubility (mole fraction),"in isopropanol, 298.15 K",0.00396
same,solubility (mole fraction),"in isopropanol, 303.15 K",0.00492
same,solubility (mole fraction),"in isopropanol, 308.15 K",0.00595
same,solubility (mole fraction),"in isopropanol, 313.15 K",0.00719
same,solubility (mole fraction),"in isopropanol, 318.15 K",0.00855
same,solubility (mole fraction),"in isopropanol, 323.15 K",0.0101
same,solubility (mole fraction),"in water, 278.15 K",4.03e-06
same,solubility (mole fraction),"in water, 283.15 K",5.68e-06
same,solubility (mole fraction),"in water, 288.15 K",7.36e-06
same,solubility (mole fraction),"in water, 293.15 K",9.49e-06
same,solubility (mole fraction),"in water, 298.15 K",1.27e-05
same,solubility (mole fraction),"in water, 303.15 K",1.74e-05
same,solubility (mole fraction),"in water, 308.15 K",2.36e-05
same,solubility (mole fraction),"in water, 313.15 K",3.15e-05
same,solubility (mole fraction),"in water, 318.15 K",4.23e-05
same,solubility (mole fraction),"in water, 323.15 K",5.49e-05
